How the values were obtained:
[1] = Tmax in Sprague-Dawley rat at 3 mg/kg, po by LC-MS/MS analysis; format: ADME, organism-based; set-up: dose 3 mg/kg, route oral; conditions: in vivo
[2] = Cmax in cynomolgus monkey at 3 mg/kg, po by LC-MS/MS analysis; format: ADME, organism-based, Macaca fascicularis; set-up: dose 3 mg/kg, route oral; conditions: in vivo
[3] = AUC (infinity) in nu/nu mouse at 3 mg/kg, po by LC-MS/MS analysis; format: ADME, organism-based; set-up: time infinity, dose 3 mg/kg, route oral; conditions: plasma
[4] = Drug uptake in tumor of mouse xenografted with human COLO205 cells at 3 mg/kg after 2 hrs; format: ADME, organism-based, Neoplasm, COLO 205; set-up: dose 3 mg/kg; conditions: read-out: Drug uptake
[5] = Terminal half life in Beagle dog at 3 mg/kg, iv by LC-MS/MS analysis; format: ADME, organism-based, Canis lupus familiaris; set-up: dose 3 mg/kg, route intravenous; conditions: in vivo, read-out: beta t1/2 (converted)
[6] = Terminal half life in Sprague-Dawley rat at 3 mg/kg, iv by LC-MS/MS analysis; format: ADME, organism-based; set-up: dose 3 mg/kg, route intravenous; conditions: in vivo, read-out: beta t1/2 (converted)
COLO 205 = assay: Antitumor activity against human COLO205 cells expressing B-raf V600E mutant xenografted in po dosed mouse assessed as inhibition of tumor growth; format: functional, organism-based
[7] = Volume of distribution at steady state in nu/nu mouse at 1 mg/kg, iv by LC-MS/MS analysis; format: ADME, organism-based; set-up: dose 1 mg/kg, route intravenous; conditions: in vivo, read-out: Vdss
[8] = Terminal half life in cynomolgus monkey at 3 mg/kg, iv by LC-MS/MS analysis; format: ADME, organism-based, Macaca fascicularis; set-up: dose 3 mg/kg, route intravenous; conditions: in vivo, read-out: beta t1/2 (converted)
[9] = Apparent permeability from basolateral to apical side of MDCK1 cells at 10 uM after 60 mins; format: ADME, cell-based, Canis lupus familiaris; conditions: dog, MDCK
MDR1 [10] = assay: Apparent permeability from basolateral to apical side of MDCK1 cells expressing MDR1 at 25 uM after 2 hrs by LC-MS/MS analysis; format: ADME, cell-based, Canis lupus familiaris; conditions: dog, MDCK-MDR1
[11] = Cmax in nu/nu mouse at 3 mg/kg, po by LC-MS/MS analysis; format: ADME, organism-based; set-up: dose 3 mg/kg, route oral; conditions: in vivo
[12] = Apparent permeability from apical to basolateral side of MDCK1 cells at 10 uM after 60 mins; format: ADME, cell-based, Canis lupus familiaris; conditions: dog, MDCK
[13] = Cmax in Sprague-Dawley rat at 3 mg/kg, po by LC-MS/MS analysis; format: ADME, organism-based; set-up: dose 3 mg/kg, route oral; conditions: in vivo
[14] = Volume of distribution at steady state in Beagle dog at 3 mg/kg, iv by LC-MS/MS analysis; format: ADME, organism-based, Canis lupus familiaris; set-up: dose 3 mg/kg, route intravenous; conditions: in vivo, read-out: Vdss
Brain [15] = assay: Unbound concentration in mouse brain at 3 mg/kg after 2 hrs; format: ADME, organism-based; set-up: dose 3 mg/kg; conditions: in vivo
[16] = Fraction unbound in mouse brain; format: ADME, tissue-based
[17] = Tmax in cynomolgus monkey at 3 mg/kg, po by LC-MS/MS analysis; format: ADME, organism-based, Macaca fascicularis; set-up: dose 3 mg/kg, route oral; conditions: in vivo
[18] = Oral bioavailability in Beagle dog at 3 mg/kg by LC-MS/MS analysis; format: ADME, organism-based, Canis lupus familiaris; conditions: in vivo
MDR1 [19] = assay: Efflux ratio of permeability from […] side in MDCK1 cells expressing MDR1 at 25 uM after 2 hrs by LC-MS/MS analysis; format: ADME, cell-based, Canis lupus familiaris; conditions: dog, MDCK-MDR1
Brain [20] = assay: Unbound AUC in mouse brain; format: ADME, tissue-based; conditions: in vivo
[21] = Tmax in Beagle dog at 3 mg/kg, po by LC-MS/MS analysis; format: ADME, organism-based, Canis lupus familiaris; set-up: dose 3 mg/kg, route oral; conditions: in vivo
Cynomolgus monkey = assay: AUC (infinity) in cynomolgus monkey at 3 mg/kg, iv by LC-MS/MS analysis; format: ADME, organism-based, Macaca fascicularis, Plasma; set-up: time infinity, dose 3 mg/kg, route intravenous; conditions: in vivo
Mus musculus = assay: AUC (infinity) in nu/nu mouse at 1 mg/kg, iv by LC-MS/MS analysis; format: ADME, organism-based, Plasma; set-up: time infinity, dose 1 mg/kg, route intravenous; conditions: in vivo
[22] = Plasma clearance in Sprague-Dawley rat at 3 mg/kg, iv by LC-MS/MS analysis; format: ADME, organism-based; set-up: dose 3 mg/kg, route intravenous
[23] = Volume of distribution at steady state in cynomolgus monkey at 3 mg/kg, iv by LC-MS/MS analysis; format: ADME, organism-based, Macaca fascicularis; set-up: dose 3 mg/kg, route intravenous; conditions: in vivo, read-out: Vdss
[24] = Antiproliferative activity against human COLO205 cells expressing B-raf V600E mutant; format: functional, cell-based; conditions: COLO 205
[25] = Volume of distribution at steady state in Sprague-Dawley rat at 3 mg/kg, iv by LC-MS/MS analysis; format: ADME, organism-based; set-up: dose 3 mg/kg, route intravenous; conditions: in vivo, read-out: Vdss
Canis familiaris = assay: AUC (infinity) in Beagle dog at 3 mg/kg, iv by LC-MS/MS analysis; format: ADME, organism-based, Canis lupus familiaris, Plasma; set-up: dose 3 mg/kg, route intravenous, time infinity; conditions: in vivo
[26] = Ratio of drug level in brain to plasma in mouse at 3 mg/kg after 2 hrs; format: ADME, organism-based; set-up: dose 3 mg/kg; conditions: read-out: BPR
[27] = Oral bioavailability in cynomolgus monkey at 3 mg/kg by LC-MS/MS analysis; format: ADME, organism-based, Macaca fascicularis; conditions: in vivo
[28] = Oral bioavailability in nu/nu mouse at 3 mg/kg by LC-MS/MS analysis; format: ADME, organism-based; conditions: in vivo
[29] = AUC (infinity) in cynomolgus monkey at 3 mg/kg, po by LC-MS/MS analysis; format: ADME, organism-based, Macaca fascicularis; set-up: time infinity, dose 3 mg/kg, route oral; conditions: plasma
[30] = Efflux ratio of permeability from […] side in MDCK1 cells at 10 uM after 60 mins; format: ADME, cell-based, Canis lupus familiaris; conditions: dog, MDCK
[31] = biological target: Dual specificity mitogen-activated protein kinase kinase 1 (Homo sapiens, UniProt Q02750); assay: Inhibition of MEK1 (unknown origin)
[32] = Oral bioavailability in Sprague-Dawley rat at 3 mg/kg by LC-MS/MS analysis; format: ADME, organism-based; conditions: in vivo
[33] = Terminal half life in nu/nu mouse at 1 mg/kg, iv by LC-MS/MS analysis; format: ADME, organism-based; set-up: dose 1 mg/kg, route intravenous; conditions: in vivo, read-out: beta t1/2 (converted)
[34] = AUC (infinity) in Sprague-Dawley rat at 3 mg/kg, po by LC-MS/MS analysis; format: ADME, organism-based; set-up: time infinity, dose 3 mg/kg, route oral; conditions: plasma
Plasma = assay: Fraction unbound in mouse plasma at 3 mg/kg after 2 hrs; format: ADME, organism-based; set-up: dose 3 mg/kg; conditions: in vivo
[35] = Ratio of drug level in tumor to plasma in mouse xenografted with human COLO205 cells at 3 mg/kg after 2 hrs; format: ADME, organism-based, COLO 205; set-up: dose 3 mg/kg
Rattus norvegicus = assay: AUC (infinity) in Sprague-Dawley rat at 3 mg/kg, iv by LC-MS/MS analysis; format: ADME, organism-based, Plasma; set-up: dose 3 mg/kg, route intravenous, time infinity; conditions: in vivo
[36] = Ratio of unbound drug level in brain to plasma in mouse at 3 mg/kg after 2 hrs; format: ADME, organism-based; set-up: dose 3 mg/kg; conditions: read-out: BPR
[37] = Tmax in nu/nu mouse at 3 mg/kg, po by LC-MS/MS analysis; format: ADME, organism-based; set-up: dose 3 mg/kg, route oral; conditions: in vivo
[38] = biological target: ATP-dependent translocase ABCB1 (Homo sapiens, UniProt P08183); assay: Inhibition of MDR1 (unknown origin) at 25 uM; format: ADME
[39] = Plasma clearance in Beagle dog at 3 mg/kg, iv by LC-MS/MS analysis; format: ADME, organism-based, Canis lupus familiaris; set-up: dose 3 mg/kg, route intravenous

Sequence of ATP-dependent translocase ABCB1 (P08183 whole entry): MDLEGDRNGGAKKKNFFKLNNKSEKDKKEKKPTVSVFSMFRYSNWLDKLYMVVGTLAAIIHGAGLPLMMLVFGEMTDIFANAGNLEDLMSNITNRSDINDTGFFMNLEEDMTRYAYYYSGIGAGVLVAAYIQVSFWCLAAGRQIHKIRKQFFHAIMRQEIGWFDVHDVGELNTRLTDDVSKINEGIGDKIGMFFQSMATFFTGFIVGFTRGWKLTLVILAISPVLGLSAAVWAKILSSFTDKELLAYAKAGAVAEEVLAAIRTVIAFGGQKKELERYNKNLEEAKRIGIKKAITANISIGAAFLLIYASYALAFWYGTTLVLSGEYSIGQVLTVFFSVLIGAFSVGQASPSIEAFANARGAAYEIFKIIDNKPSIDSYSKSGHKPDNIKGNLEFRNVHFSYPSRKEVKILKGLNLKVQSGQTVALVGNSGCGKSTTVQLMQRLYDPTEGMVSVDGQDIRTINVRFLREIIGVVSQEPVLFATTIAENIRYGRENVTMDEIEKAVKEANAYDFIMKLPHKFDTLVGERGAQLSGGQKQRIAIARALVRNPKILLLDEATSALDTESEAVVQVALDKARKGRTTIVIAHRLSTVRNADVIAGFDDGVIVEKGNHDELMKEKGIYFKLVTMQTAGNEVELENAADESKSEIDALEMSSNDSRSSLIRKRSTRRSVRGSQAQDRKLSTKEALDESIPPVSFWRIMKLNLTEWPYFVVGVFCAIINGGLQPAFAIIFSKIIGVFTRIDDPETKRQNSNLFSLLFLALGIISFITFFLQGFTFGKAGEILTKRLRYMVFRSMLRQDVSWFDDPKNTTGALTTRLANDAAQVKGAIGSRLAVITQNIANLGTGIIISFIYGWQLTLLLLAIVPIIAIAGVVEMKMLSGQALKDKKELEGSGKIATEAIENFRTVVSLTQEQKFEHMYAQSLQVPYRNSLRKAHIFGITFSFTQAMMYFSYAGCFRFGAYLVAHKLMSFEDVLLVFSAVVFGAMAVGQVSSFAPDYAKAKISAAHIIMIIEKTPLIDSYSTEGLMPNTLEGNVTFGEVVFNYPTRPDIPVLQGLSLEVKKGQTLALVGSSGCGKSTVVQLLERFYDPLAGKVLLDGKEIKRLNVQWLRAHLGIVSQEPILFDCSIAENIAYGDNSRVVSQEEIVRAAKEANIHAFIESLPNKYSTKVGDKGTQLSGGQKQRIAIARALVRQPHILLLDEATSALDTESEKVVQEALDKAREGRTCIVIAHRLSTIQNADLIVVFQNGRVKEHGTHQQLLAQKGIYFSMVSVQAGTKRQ
Sequence of Dual specificity mitogen-activated protein kinase kinase 1 (Q02750 whole entry): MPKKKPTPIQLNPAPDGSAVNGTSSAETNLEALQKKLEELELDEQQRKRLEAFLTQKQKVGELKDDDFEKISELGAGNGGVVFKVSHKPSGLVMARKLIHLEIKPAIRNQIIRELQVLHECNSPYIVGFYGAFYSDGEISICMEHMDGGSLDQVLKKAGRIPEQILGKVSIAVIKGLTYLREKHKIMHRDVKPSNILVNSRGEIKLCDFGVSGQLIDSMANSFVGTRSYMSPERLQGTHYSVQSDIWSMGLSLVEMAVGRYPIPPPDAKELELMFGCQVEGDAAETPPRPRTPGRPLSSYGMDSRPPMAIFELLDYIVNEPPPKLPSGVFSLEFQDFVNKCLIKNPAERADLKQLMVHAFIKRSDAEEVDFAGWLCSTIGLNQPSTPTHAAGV

O=C(c1ccc(F)c(F)c1Nc1ccc(I)cc1F)N1CC(O)([C@@H]2CCCCN2)C1 [COBIMETINIB]
Tmax [1]: 3.5 h | Cmax [2]: 50 ng/mL | AUC(0-inf) [3]: 1510 ng·h/mL | concentration at 2 h [4]: 1560 nM | half-life [5]: 9.19 h | half-life [6]: 13.3 h | TGI (COLO 205): Dose-dependent effect | Vd [7]: 9.4 L/kg | half-life [8]: 10.3 h | Papp B→A at 1 h, 10 µM [9]: 4 ×10⁻⁶ cm/s | Papp B→A at 2 h, 25 µM (MDR1 [10]): 35.4 ×10⁻⁶ cm/s | Cmax [11]: 184 ng/mL | Papp A→B at 1 h, 10 µM [12]: 1.39 ×10⁻⁶ cm/s | Cmax [13]: 193 ng/mL | Vd [14]: 3.99 L/kg | Concentration (Brain [15]): 0.1 nM | fraction unbound [16]: 0.0012 | Tmax [17]: 2 h | bioavailability [18]: 69.1% | efflux ratio at 2 h, 25 µM (MDR1 [19]): 40 | fAUC (Brain [20]): 3 nM·h | Tmax [21]: 2.67 h | AUC (Cynomolgus monkey): 3340 ng·h/mL | AUC (Mus musculus): 935 ng·h/mL | clearance [22]: 37.8 mL/min/kg | Vd [23]: 29.6 L/kg | IC50 [24]: 8 nM | Vd [25]: 34.6 L/kg | AUC (Canis familiaris): 17100 ng·h/mL | Kp at 2 h [26]: 0.5 | bioavailability [27]: 19.6% | bioavailability [28]: 53.9% | AUC(0-inf) [29]: 640 ng·h/mL | efflux ratio at 1 h, 10 µM [30]: 3 | IC50 [31]: 4.2 nM | bioavailability [32]: 69% | half-life [33]: 3.92 h | AUC(0-inf) [34]: 1590 ng·h/mL | Cp(f) (Plasma): 5.7 nM | Kp at 2 h [35]: 9 | AUC (Rattus norvegicus): 2320 ng·h/mL | Kp uu at 2 h [36]: 0.018 | Tmax [37]: 0.25 h | inhibition (INH) [38]: Not Active | clearance [39]: 5.53 mL/min/kg
